# Assay results published in publication PMC10582583, “The novel cyclophilin inhibitor C105SR reduces hepatic ischaemia–reperfusion injury via mitoprotection” (JHEP Reports, 2023).
# Key:
# AML-12 cells [1] = experiment: LDH release, hypoxia/reoxygenation; format: cell-based, mouse; settings: 0.5 μM
# Procedure: As expected, cells subjected to hypoxia/reoxygenation were characterised by greater LDH release and reduced cell viability as compared to untreated controls (Fig. 4A and 4B). […]
# Hypoxia/reoxygenation (H/R) in vitro model. AML-12 mouse hepatocyte line was obtained from American Type Culture Collection (ATCC) and maintained in DMEM/F12 culture medium at 37°C with 5% CO2. HepaRG human hepatocyte line was obtained from American Type Culture Collection (ATCC) and maintained in William’S E culture medium at 37°C with 5% CO2.When indicated, cells were incubated in phosphate buffered saline at 37°C in a hypoxic chamber filled with 94% N2, 1% O2, 5% CO2 for 4 h to mimic ischemic conditions. Then, cells were transferred to a CO2 incubator at 37°C in regular DMEM/F12 culture medium for 1 or 2 h under normoxic conditions (74% N2, 21% O2, 5% CO2). SMCypIs or vehicle (DMSO) were added during the hypoxia period, during the reoxygenation period, or during both. CsA and ALV were used as positive controls for hepatic protection against H/R injury. […]
# Cell viability assays. Lactate dehydrogenase (LDH) release in culture medium was assessed using the commercially non-radioactive CytoTox-96 kit (Promega, Madison, Wisconsin) following the manufacturer’s instructions. Briefly, cell culture media were collected and the LDH activity was determined by measuring absorbance at 491 nm with a spectrometer (Multiskan skyHigh). For 3-(4,5-dimethylthiazol-2-yl)-2,5-diphenyltetrazolium bromide (MTT) assay, cells were incubated with a solution of MTT (0.5 mg/mL) for 2 h at 37°C. The medium was then removed and 50 µL DMSO was added to each well. Optical density of purple formazan product was measured at 550 nm. Cell viability was expressed as a percentage of the untreated control.
# CypD = CypD (Homo sapiens, UniProt P30405); experiment: CypD PPIase activity, chymotrypsin-coupled assay; format: biochemical; settings: Table 1
# CypD, sequence (P30405 30-207): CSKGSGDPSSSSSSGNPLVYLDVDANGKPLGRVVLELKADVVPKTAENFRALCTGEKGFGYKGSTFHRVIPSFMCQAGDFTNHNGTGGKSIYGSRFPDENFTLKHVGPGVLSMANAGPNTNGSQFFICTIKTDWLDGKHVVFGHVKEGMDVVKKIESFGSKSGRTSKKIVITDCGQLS
# AML-12 cells [2] = experiment: mPTP opening, CoCl2-calcein AM fluorescence-quenching assay, hypoxia/reoxygenation; format: cell-based, mouse; settings: for prevention of mPTP opening (loss of calcein fluorescence): 1 μM, 4 h hypoxia, 1 h reoxygenation
# Procedure: We next evaluated the ability of compounds C105SR and C110SR to inhibit mPTP opening in cells. The hepatocyte cell line AML-12 was subjected to 4 h of hypoxia followed by 1 h of reoxygenation and mPTP opening was monitored using the CoCl2-calcein-acetoxymethyl ester (AM) fluorescence-quenching method.[19] Calcein-AM is a membrane permeable fluorophore which passively diffuses in all subcellular compartments including mitochondria. In the cell, the AM group of the fluorophore is cleaved by ubiquitous intracellular esterases, generating a hydrophilic product that is retained within the cell. The cells are then loaded with the divalent cobalt cation (Co^2+), which quenches calcein fluorescence in all subcellular compartments except the mitochondrial matrix, because the inner mitochondrial membrane is impermeable to cobalt. However, when mPTP is open, cobalt enters mitochondria and quenches mitochondrial calcein fluorescence. […]
# Hypoxia/reoxygenation (H/R) in vitro model. AML-12 mouse hepatocyte line was obtained from American Type Culture Collection (ATCC) and maintained in DMEM/F12 culture medium at 37°C with 5% CO2. HepaRG human hepatocyte line was obtained from American Type Culture Collection (ATCC) and maintained in William’S E culture medium at 37°C with 5% CO2.When indicated, cells were incubated in phosphate buffered saline at 37°C in a hypoxic chamber filled with 94% N2, 1% O2, 5% CO2 for 4 h to mimic ischemic conditions. Then, cells were transferred to a CO2 incubator at 37°C in regular DMEM/F12 culture medium for 1 or 2 h under normoxic conditions (74% N2, 21% O2, 5% CO2). SMCypIs or vehicle (DMSO) were added during the hypoxia period, during the reoxygenation period, or during both. CsA and ALV were used as positive controls for hepatic protection against H/R injury.
# Monitoring of mPTP opening. mPTP opening was monitored in AML-12 cells using the CoCl2-calcein AM fluorescence-quenching assay. Cells were loaded with 1 µM calcein-AM (green) for 20 min. Then, 1 mM CoCl2 was added and cells were incubated for another 10 min. Cells were washed and subjected to 4 h of hypoxia followed by 1 h of reoxygenation. Calcein fluorescence was measured using a spectrofluorimeter at excitation and emission wavelengths of 485 nm and 535 nm, respectively. Images were acquired using a standard inverted fluorescence microscope (Zeiss Axio, […]
# media during the entire H/R period. Images shown are representative images of 12-18 images. […]
# Optical density of purple formazan product was measured at 550 nm. […]
# [3] = tested on: isolated mouse liver mitochondria; experiment: Calcium retention capacity (CRC) assay in isolated liver mitochondria; format: biochemical; settings: for EC50: isolated mouse liver mitochondria; for maximal mitochondrial CRC, diastereoisomer vs racemic mixture: Fig. 2E; for maximal mitochondrial CRC: compound at 100 μM (Fig. 1C), basal 160 ± 8
# [4] = tested on: isolated mouse liver mitochondria; experiment: Ca2+-induced mitochondrial swelling assay; format: biochemical; settings: energised isolated mouse liver mitochondria
SMILES,IC50 (CypD) [nM],further results
CSc1ccccc1C1CCCN1C(=O)C(NC(=O)NCc1ccc(N)cc1)c1ccccc1 (stereo not shown) [Compound C31],200 ± 100,inhibition of cell death (AML-12 cells [1]): not effective; inhibition of mPTP opening (AML-12 cells [2]; 0.5 μM): not effective; EC50 [3]: 9090 ± 210 nM; IC50 [4]: 1300 ± 50 nM
"COc1ccc(Br)cc1C(NC(=O)NCc1ccc2c(c1)CCCN2)C(=O)N1CCCC1c1cccc2ccsc12 (stereo not shown) [Compound C105, 1-(2-(2-(benzo[b]thiophen-7-yl)pyrrolidin-1-yl)-1-(5-bromo-2-methoxyphenyl)-2-oxoethyl)-3-((1,2,3,4-tetrahydroquinolin-6-yl)methyl)urea]",–,"prevention of mPTP opening (loss of calcein fluorescence) (AML-12 cells [2]): not; maximal mitochondrial CRC, diastereoisomer vs racemic mixture [3]: 407 ± 13 nmol Ca2+/mg of mitochondrial; maximal mitochondrial CRC [3]: 407 ± 13 nmol Ca2+/mg of mitochondrial; EC50 [3]: 2370 ± 110 nM; IC50 [4]: 690 ± 50 nM"
"COc1ccc(OC)c(C(NC(=O)NCc2ccc(N)cc2)C(=O)N2CCCC2c2cccc3ccsc23)c1 (stereo not shown) [Compound C108, 1-(4-aminobenzyl)-3-(2-(2-(benzo[b]thiophen-7-yl)pyrrolidin-1-yl)-1-(2,5-dimethoxyphenyl)-2-oxoethyl)urea]",480 ± 230,–
"CSc1ccccc1C1CCCN1C(=O)C(NC(=O)NCc1cccc2c1OCCO2)c1ccccc1 (stereo not shown) [Compound C129, 1-((2,3-dihydrobenzo[b][1,4]dioxin-5-yl)methyl)-3-(2-(2-(2-(methylthio)phenyl)pyrrolidin-1-yl)-2-oxo-1-phenylethyl)urea]",260 ± 70,–
"CSc1ccccc1C1CCCN1C(=O)C(NC(=O)NCc1cccc2ccsc12)c1ccccc1 (stereo not shown) [Compound C142, 1-(benzo[b]thiophen-7-ylmethyl)-3-(2-(2-(2-(methylthio)phenyl)pyrrolidin-1-yl)-2-oxo-1-phenylethyl)urea]",420 ± 100,–
"CSc1ccccc1C1CCCN1C(=O)C(NC(=O)NCc1cccc2c1CCN2)c1ccccc1 (stereo not shown) [Compound C144, 1-(indolin-4-ylmethyl)-3-(2-(2-(2-(methylthio)phenyl)pyrrolidin-1-yl)-2-oxo-1-phenylethyl)urea]",310 ± 160,maximal mitochondrial CRC [3]: 422 ± 44 nmol Ca2+/mg of mitochondrial; EC50 [3]: 11760 ± 10 nM; IC50 [4]: 11570 ± 10 nM
"COc1ccc(OC)c(C(NC(=O)NCc2cccc3[nH]ccc23)C(=O)N2CCCC2c2ccccc2SC)c1 (stereo not shown) [Compound C170, 1-((1H-indol-4-yl)methyl)-3-(1-(2,5-dimethoxyphenyl)-2-(2-(2-(methylthio)phenyl)pyrrolidin-1-yl)-2-oxoethyl)urea]",1050 ± 720,–
"CSc1ccccc1C1CCCN1C(=O)C(NC(=O)NCc1cccc2[nH]ccc12)c1ccccc1 (stereo not shown) [Compound C172, 1-((1H-indol-4-yl)methyl)-3-(2-(2-(2-(methylthio)phenyl)pyrrolidin-1-yl)-2-oxo-1-phenylethyl)urea]",210 ± 70,–
"CCNC(=O)N1CCCc2c(CNC(=O)NC(C(=O)N3CCCC3c3ccccc3SC)c3ccccc3)cccc21 (stereo not shown) [Compound C177, N-ethyl-5-((3-(2-(2-(2-(methylthio)phenyl)pyrrolidin-1-yl)-2-oxo-1-phenylethyl)ureido)methyl)-3,4-dihydroquinoline-1(2H)-carboxamide]",490 ± 320,–

# The next lines start with results.
IC50 (CypD) [nM],SMILES,further results
790 ± 210,"CSc1ccccc1C1CCCN1C(=O)C(NC(=O)NCc1ccc(N)cc1)C1CCCCC1 (stereo not shown) [Compound C71, 1-(4-aminobenzyl)-3-(1-cyclohexyl-2-(2-(2-(methylthio)phenyl)pyrrolidin-1-yl)-2-oxoethyl)urea]",–
400 ± 190,"CSc1ccccc1C1CCCN1C(=O)C(NC(=O)NC(C)c1ccc(N)c(F)c1)c1ccccc1 (stereo not shown) [Compound C101, 1-(1-(4-amino-3-fluorophenyl)ethyl)-3-(2-(2-(2-(methylthio)phenyl)pyrrolidin-1-yl)-2-oxo-1-phenylethyl)urea]",–
100 ± 20,"COc1ccc(Br)cc1C(NC(=O)NCc1ccc(N)cc1)C(=O)N1CCCC1c1cccc2ccsc12 (stereo not shown) [Compound C110, 1-(4-aminobenzyl)-3-(2-(2-(benzo[b]thiophen-7-yl)pyrrolidin-1-yl)-1-(5-bromo-2-methoxyphenyl)-2-oxoethyl)urea]","prevention of mPTP opening (loss of calcein fluorescence) (AML-12 cells [2]): not; maximal mitochondrial CRC, diastereoisomer vs racemic mixture [3]: 400 ± 27 nmol Ca2+/mg of mitochondrial; maximal mitochondrial CRC [3]: 400 ± 27 nmol Ca2+/mg of mitochondrial; EC50 [3]: 2830 ± 90 nM; IC50 [4]: 370 ± 6 nM"
480 ± 40,"COc1cc(OC)c(C(NC(=O)NCc2ccc(N)cc2)C(=O)N2CCCC2c2cccc3ccsc23)cc1Br (stereo not shown) [Compound C112, 1-(4-aminobenzyl)-3-(2-(2-(benzo[b]thiophen-7-yl)pyrrolidin-1-yl)-1-(5-bromo-2,4-dimethoxyphenyl)-2-oxoethyl)urea]",–
150 ± 30,"CSc1ccccc1C1CCCN1C(=O)C(NC(=O)NCC1CC2(CNC2)C1)c1ccccc1 (stereo not shown) [Compound C119, 1-((2-azaspiro[3.3]heptan-6-yl)methyl)-3-(2-(2-(2-(methylthio)phenyl)pyrrolidin-1-yl)-2-oxo-1-phenylethyl)urea]",–
1260 ± 370,"COc1ccc(Br)cc1C(NC(=O)NC(C)c1ccc(N)c(F)c1)C(=O)N1CCCC1c1ccccc1SC (stereo not shown) [Compound C123, 1-(1-(4-amino-3-fluorophenyl)ethyl)-3-(1-(5-bromo-2-methoxyphenyl)-2-(2-(2-(methylthio)phenyl)pyrrolidin-1-yl)-2-oxoethyl)urea]",–
340 ± 130,"COc1ccc(OC)c(C(NC(=O)NCc2cccc3[nH]ncc23)C(=O)N2CCCC2c2ccccc2SC)c1 (stereo not shown) [Compound C171, 1-((1H-indazol-4-yl)methyl)-3-(1-(2,5-dimethoxyphenyl)-2-(2-(2-(methylthio)phenyl)pyrrolidin-1-yl)-2-oxoethyl)urea]",–
400 ± 190,"CSc1ccccc1C1CCCN1C(=O)C(NC(=O)NCc1cccc2[nH]ncc12)c1ccccc1 (stereo not shown) [Compound C178, 1-((1H-indazol-4-yl)methyl)-3-(2-(2-(2-(methylthio)phenyl)pyrrolidin-1-yl)-2-oxo-1-phenylethyl)urea]",–
590 ± 190,"CSc1ccccc1C1CCCN1C(=O)C(NC(=O)NN1Cc2ccc(N)cc2C1)c1ccccc1 (stereo not shown) [Compound C185, 1-(5-aminoisoindolin-2-yl)-3-(2-(2-(2-(methylthio)phenyl)pyrrolidin-1-yl)-2-oxo-1-phenylethyl)urea]",–
